Source: publication PMC12811997 (Chemmedchem, 2025)
≈ marks a conversion by molar mass, not a printed value. Where two headings read alike, the source gives them in different places.

Key:
[1] = target: T1, SARS‐CoV‐2 RdRp complex (nsp12, nsp7, nsp8) (Severe acute respiratory syndrome coronavirus 2, UniProt P0DTD1); parameters: method as in PMID 39140451; conditions: at 10 μM concentration of screened compound; ref [10]; cited from earlier work
[2] = target: T1, SARS‐CoV‐2 RdRp complex (nsp12, nsp7, nsp8); assay: biochemical; format: biochemical; conditions: AUC with compound / AUC of noninhibited reaction
[3] = test system: SARS‐CoV‐2; assay: microbe, parasite or virus in culture; format: cell-based; conditions: Calu‐3 cells infected with SARS‐CoV‐2, concentration required to reduce viral cytopathic effect by 50%, read-out: EC50
[4] = Chemical stability in aqueous solution; format: physicochemical
[5] = in vitro; conditions: human
Protocol: (§1) Cytotoxicity was evaluated by incubating the same two‐fold serial dilutions of each compound with Calu‐3 cells as above but without the virus. Following 3 days of incubation at 37 °C in 5% CO2, the cell viability was determined by the addition of XTT solution as above. The compound cytotoxic concentrations resulting in a 50% reduction of absorbance (CC50) were calculated from plots of the percentage of absorbance versus log10 of drug concentration as above.

[6] = Kinetic solubility
[7] = test system: Calu‐3 cells; conditions: read-out: CC50 ± SE, concentration required to reduce cell viability by 50%
Protocol: as §1

For `O=C(Nc1cccc(C(F)(F)F)c1)Nc1nc2cc(Cl)c(Cl)cc2[nH]1` [Compound 3], the “RA (residual activity of RdRp)” value [1] is given as 49 ± 6%.
In the case of `O=C(Nc1cc(Cl)cc(Cl)c1)Nc1nc2ccc(C(F)(F)F)cc2[nH]1` [Compound 4], the “RA (residual activity of RdRp)” value [1] is given as 29 ± 2%.
With `O=C(Nc1cc(Cl)cc(Cl)c1)Nc1ccc(CN2CCOC(=O)C2)c(C(F)(F)F)c1` [Compound 64, 1‐(3,5‐Dichlorophenyl)‐3‐(4‐((2‐Oxomorpholino)Methyl)‐3‐(Trifluoromethyl)Phenyl)Urea] the remaining activity at 10 µM ([2]; read-out: RA ± SD (residual activity of RdRp), at 10 μM concentration of screened compounds) was 39 ± 12%, the EC50 ([3]; Severe acute respiratory syndrome coronavirus 2) was over 38 µM and the chemical stability [4] was “chemically unstable and underwent rapid hydrolysis in aqueous solution”. For the same molecule, the CC50 at 3 days [5] was 38 ± 8.2 µM, the solubility kinetic ([6]; kinetic from dmso stock) was 21 ± 2 µM (≈ 9.71 µg/mL) and the “increase in kinetic solubility compared with compound 39” value ([6]; relative to compound 39) was 5 fold.
For “Ethyl 1‐(4‐(3‐(3,5‐Dichlorophenyl)Ureido)‐2‐(Trifluoromethyl)Benzyl)Piperidine‐4‐Carboxylate Hydrochloride [Compound 67]”, the “RA ± SD (residual activity of RdRp)” value ([2]; at 10 μM concentration of screened compounds) was 51 ± 11%, the EC50 [3] was over 9 µM and the CC50 [7] was 9 ± 0.38 µM.
